From patent publication US8618082B2, “Lupeol anti-tumor agent and uses thereof” (Wisconsin Alumni Research Foundation, priority 2004, dated 2013)

Assays:
epidermal iNOS protein = test: TPA-induced epidermal iNOS protein expression (western blot); type: in vivo, mouse
Procedure: FIG. 4. Inhibitory effect of Lupeol on TPA-induced epidermal ODC, iNOS and COX-2 protein expression in CD-1 mice: At different times after treatment, the animals were sacrificed, epidermal protein lysate was prepared, and ODC and COX-2 protein expression were determined. Equal loading of protein was confirmed by stripping the immunoblot and reprobing it for β-actin. The immunoblots shown here are representative of three independent experiments with similar results. The values above each lane indicate relative density of the band normalized to β-actin.
The animals were shaved on the dorsal side of the skin, divided into four groups and treated topically on the shaved area with either 0.4 ml vehicle (acetone), or TPA (3.2 nmol/0.4 ml acetone/animal, v/v), or Lupeol (1 or 2 mg/0.2 ml acetone/animal, w/v) followed 30 min later with TPA (3.2 nmol/0.2 ml acetone/animal). Animals were sacrificed at different times point i.e. 6, 12, 24 and 48 h post TPA treatment. […]
(§1) Epidermis from the whole skin was separated as described earlier (Katiyar et al., 1999) and was homogenized in ice-cold lysis buffer [50 mM Tris-HCl, 150 mM NaCl, 1 mM EGTA, 1 mM EDTA, 20 mM NaF, 100 mM Na3VO4, 0.5% NP-40, 1% Triton X-100, 1 mM PMSF (pH 7.4)] with freshly added protease inhibitor cocktail, Protease Inhibitor Cocktail Set III (Calbiochem, La Jolla, Calif., USA). […] The protein content in the lysates was measured by DC BioRad assay (BioRad Laboratories, Hercules, Calif.) as per the manufacturer's protocol.
(§2) For western blot analysis, 40 μg of the protein was resolved over 8-12% polyacrylamide gels and transferred to a nitrocellulose membrane. […] This was followed by incubation with anti-mouse or anti-rabbit secondary antibody horse-radish peroxidase (Amersham Life Sciences, Inc., USA) for 1 h and then washed several times and detected by chemiluminescence ECL kit, (Amersham Life Sciences, Inc., USA) and autoradiography using XAR-5 film obtained from Eastman Kodak Co. (Rochester, N.Y., USA). […]

[1] = system: catalytic (p110) and regulatory (p85) subunit of PI3K; test: TPA-induced epidermal PI3K expression (western blot); type: in vivo, mouse
Procedure: FIG. 5. Inhibitory effect of Lupeol on TPA-induced activation of PI3K and phosphorylation of Akt in CD-1 mice: At different times after treatment, the animals were sacrificed, epidermal protein lysate was prepared, and PI3K and phosphorylated (Thr^308) Akt and total Akt protein expression were determined. The immunoblots shown here are representative of three independent experiments with similar results. The values above each lane indicate relative density of the band normalized to β-actin.
The animals were shaved on the dorsal side of the skin, divided into four groups and treated topically on the shaved area with either 0.4 ml vehicle (acetone), or TPA (3.2 nmol/0.4 ml acetone/animal, v/v), or Lupeol (1 or 2 mg/0.2 ml acetone/animal, w/v) followed 30 min later with TPA (3.2 nmol/0.2 ml acetone/animal). Animals were sacrificed at different times point i.e. 6, 12, 24 and 48 h post TPA treatment. The epidermis was separated from the whole skin and homogenized in 0.1 M Tris-HCl buffer (pH 7.2) using a Polytron tissue homogenizer (Brinkmann Instruments, Westbury, N.Y., USA) at 100,000×g supernatant, and microsomal fractions were prepared as described earlier (Katiyar and Mukhtar, 1997). The sample of 6 h treatment group was used to assess the ODC activity as this time point has previously been shown for optimal induction of the enzyme (Katiyar er al., 1996).
as §1, with “USA). The homogenate was then centrifuged at 14,000×g for 25 minutes at 4° C. and the supernatant (total cell lysate) was collected, aliquoted and stored at −80° C. For the preparation of nuclear lysate, 0.2 g of the epidermis was homogenized in 1 ml of ice-cold phosphate-buffered saline (pH 7.6) and centrifuged at 12,000×g for 5 min at 4° C.” for “USA).”
as §2

`C=C(C)[C@@H]1CC[C@]2(C)CC[C@]3(C)[C@H](CC[C@@H]4[C@@]5(C)CC[C@H](O)C(C)(C)[C@@H]5CC[C@]43C)[C@@H]12` [Lupeol, Lup-20(29)-en-3β-ol] was tested, and the “inhibition against TPA-induced epidermal iNOS protein expression (densitometry)” value (epidermal iNOS protein; Lupeol 2 mg/animal) was 74%, the “epidermal iNOS protein expression after Lupeol alone” value (epidermal iNOS protein; Lupeol alone 2 mg) was “did not produce any change” and the “expression of p110 and p85” value ([1]; 2 mg Lupeol prior to TPA) was “recovery of the expression of both p110 and p85 almost to their basal levels”. The “TPA-induced increased expression of catalytic and regulatory subunits of PI3K” value ([1]; topical Lupeol 30 min prior to TPA) was “significant inhibition”.
